According to patent publication US20090226527A1, “Particulate-stabilized injectable pharmacutical compositions of posaconazole” (priority 2004, published 2009):
Values after ≈ are worked out from the molar mass of the structure shown.

System: infectious agents (strains tested)
Assay: microbe, parasite or virus in culture
Format: cell-based

Compound `CCC([C@@H](C)O)n1ncn(-c2ccc(N3CCN(c4ccc(OC[C@@H]5CO[C@@](Cn6cncn6)(c6ccc(F)cc6F)C5)cc4)CC3)cc2)c1=O` (stereo partly shown) [Posaconazole] has an MIC (Exophiala moniliae, read-out: Geometric Mean MIC) of 0.016 µg/mL (≈ 0.0228 µM), an MIC (Exophiala moniliae, read-out: MIC[90]) of 0.016 µg/mL (≈ 0.0228 µM) and an MIC (Fonsecae pedrosoi, read-out: Geometric Mean MIC) of 0.25 µg/mL (≈ 0.357 µM). It also gave an MIC (Fonsecae pedrosoi, read-out: MIC[90]) of 0.25 µg/mL (≈ 0.357 µM), an MIC (Fusarium spp, read-out: Geometric Mean MIC) of 2.32 µg/mL (≈ 3.31 µM) and an MIC (Fusarium spp, read-out: MIC[90]) of 16 µg/mL (≈ 22.8 µM). For the same compound, the MIC (Hansenula anomala, Pichia anomala, read-out: Geometric Mean MIC) was 0.689 µg/mL (≈ 0.983 µM), the MIC (Hansenula anomala, Pichia anomala, read-out: MIC[90]) was 1 µg/mL (≈ 1.43 µM) and the MIC (Histoplasma capsulatum, read-out: Geometric Mean MIC, Histoplasma capsulatum) was 0.038 µg/mL (≈ 0.0542 µM). For the same compound, the MIC (Histoplasma capsulatum, read-out: MIC[90], Histoplasma capsulatum) was 0.25 µg/mL (≈ 0.357 µM), the MIC (Kluyveromyces marxianus, Candida kefyr, read-out: Geometric Mean MIC) was 0.081 µg/mL (≈ 0.116 µM) and the MIC (Kluyveromyces marxianus, Candida kefyr, read-out: MIC[90]) was 0.25 µg/mL (≈ 0.357 µM). For the same compound, the MIC (Kluyveromyces marxianus, read-out: Geometric Mean MIC) was 0.079 µg/mL (≈ 0.113 µM), the MIC (Kluyveromyces marxianus, read-out: MIC[90]) was 0.063 to 0.25 µg/mL (≈ 0.0899 to 0.357 µM) and the MIC (Kodamaea ohmeri, Pichia ohmeri, read-out: Geometric Mean MIC) was 0.016 µg/mL (≈ 0.0228 µM). For the same compound, the MIC (Kodamaea ohmeri, Pichia ohmeri, read-out: MIC[90]) was 0.016 µg/mL (≈ 0.0228 µM), the MIC (Lodderomyces parapsilosis, Candida parapsilosis, read-out: Geometric Mean MIC) was 0.073 µg/mL (≈ 0.104 µM) and the MIC (Lodderomyces parapsilosis, Candida parapsilosis, read-out: MIC[90]) was 0.125 µg/mL (≈ 0.178 µM). The MIC (Meyerozyma guilliermondii, Candida guilliermondii, read-out: Geometric Mean MIC) was 0.178 µg/mL (≈ 0.254 µM), the MIC (Meyerozyma guilliermondii, Candida guilliermondii, read-out: MIC[90]) was 0.5 µg/mL (≈ 0.713 µM) and the MIC (Microsporum audouinii, read-out: Geometric Mean MIC) was 0.25 µg/mL (≈ 0.357 µM). For the same compound, the MIC (Microsporum audouinii, read-out: MIC[90]) was 0.25 µg/mL (≈ 0.357 µM), the MIC (Microsporum canis, read-out: Geometric Mean MIC) was 0.034 µg/mL (≈ 0.0485 µM) and the MIC (Microsporum canis, read-out: MIC[90]) was 0.5 µg/mL (≈ 0.713 µM). The MIC (Mucor spp, read-out: Geometric Mean MIC) was 0.694 µg/mL (≈ 0.99 µM), the MIC (Mucor spp, read-out: MIC[90]) was 16 µg/mL (≈ 22.8 µM) and the MIC (Nakaseomyces glabratus, Candida glabrata, read-out: Geometric Mean MIC) was 0.672 µg/mL (≈ 0.959 µM). The MIC (Nakaseomyces glabratus, Candida glabrata, read-out: MIC[90]) was 2 µg/mL (≈ 2.85 µM), the MIC (Nannizzia fulva, Microsporum fulvum, read-out: Geometric Mean MIC) was 0.5 µg/mL (≈ 0.713 µM) and the MIC (Nannizzia fulva, Microsporum fulvum, read-out: MIC[90]) was 0.5 µg/mL (≈ 0.713 µM). The MIC (Nannizzia gypsea, Microsporum gypseum, read-out: Geometric Mean MIC) was 0.042 µg/mL (≈ 0.0599 µM), the MIC (Nannizzia gypsea, Microsporum gypseum, read-out: MIC[90]) was 0.008 to 0.5 µg/mL (≈ 0.0114 to 0.713 µM) and the MIC (Nannizzia persicolor, Microsporum persicolor, read-out: Geometric Mean MIC) was 0.25 µg/mL (≈ 0.357 µM). It also gave an MIC (Nannizzia persicolor, Microsporum persicolor, read-out: MIC[90]) of 0.25 µg/mL (≈ 0.357 µM), an MIC (Paecilomyces spp, read-out: Geometric Mean MIC) of 0.239 µg/mL (≈ 0.341 µM) and an MIC (Paecilomyces spp, read-out: MIC[90]) of 0.5 µg/mL (≈ 0.713 µM). The MIC (Papiliotrema laurentii, Cryptococcus laurentii, read-out: Geometric Mean MIC) was 0.095 µg/mL (≈ 0.136 µM), the MIC (Papiliotrema laurentii, Cryptococcus laurentii, read-out: MIC[90]) was 0.008 to 0.5 µg/mL (≈ 0.0114 to 0.713 µM) and the MIC (Paracoccidioides brasiliensis, read-out: Geometric Mean MIC, Paracoccidioides brasiliensis) was 0.048 µg/mL (≈ 0.0685 µM). For the same compound, the MIC (Paracoccidioides brasiliensis, read-out: MIC[90], Paracoccidioides brasiliensis) was 0.125 µg/mL (≈ 0.178 µM), the MIC (Penicillium spp, read-out: Geometric Mean MIC) was 0.308 µg/mL (≈ 0.44 µM) and the MIC (Penicillium spp, read-out: MIC[90]) was 1 µg/mL (≈ 1.43 µM). The MIC (Pichia etchel, read-out: Geometric Mean MIC) was 0.125 µg/mL (≈ 0.178 µM), the MIC (Pichia etchel, read-out: MIC[90]) was 0.125 µg/mL (≈ 0.178 µM) and the MIC (Pichia kudriavzevii, Candida krusei, read-out: Geometric Mean MIC) was 0.335 µg/mL (≈ 0.478 µM). It also gave an MIC (Pichia kudriavzevii, Candida krusei, read-out: MIC[90]) of 1 µg/mL (≈ 1.43 µM), an MIC (Pleurothecium obovoideum, Ramichloridium obovoideum, read-out: Geometric Mean MIC) of 0.044 µg/mL (≈ 0.0628 µM) and an MIC (Pleurothecium obovoideum, Ramichloridium obovoideum, read-out: MIC[90]) of 0.031 to 0.063 µg/mL (≈ 0.0442 to 0.0899 µM). For the same compound, the MIC (Rhizomucor spp, read-out: Geometric Mean MIC) was 0.016 µg/mL (≈ 0.0228 µM), the MIC (Rhizomucor spp, read-out: MIC[90]) was 0.016 µg/mL (≈ 0.0228 µM) and the MIC (Rhizopus spp, read-out: Geometric Mean MIC) was 1 µg/mL (≈ 1.43 µM). The MIC (Rhizopus spp, read-out: MIC[90]) was 4 µg/mL (≈ 5.71 µM), the MIC (Saccharomyces cerevisiae, read-out: Geometric Mean MIC) was 0.249 µg/mL (≈ 0.355 µM) and the MIC (Saccharomyces cerevisiae, read-out: MIC[90]) was 1 µg/mL (≈ 1.43 µM). It also gave an MIC (Scedosporium apiospermum, read-out: Geometric Mean MIC) of 0.173 µg/mL (≈ 0.247 µM), an MIC (Scedosporium apiospermum, read-out: MIC[90]) of 1 µg/mL (≈ 1.43 µM) and an MIC (Scedosporium boydii, Pseudallescheria boydii, read-out: Geometric Mean MIC) of 0.365 µg/mL (≈ 0.521 µM). For the same compound, the MIC (Scedosporium boydii, Pseudallescheria boydii, read-out: MIC[90]) was 1 µg/mL (≈ 1.43 µM), the MIC (Sporothrix schenckii, read-out: Geometric Mean MIC) was 0.771 µg/mL (≈ 1.1 µM) and the MIC (Sporothrix schenckii, read-out: MIC[90]) was 2 µg/mL (≈ 2.85 µM). For the same compound, the MIC (Trichophyton mentagrophytes, read-out: Geometric Mean MIC) was 0.036 µg/mL (≈ 0.0514 µM), the MIC (Trichophyton mentagrophytes, read-out: MIC[90]) was 0.125 µg/mL (≈ 0.178 µM) and the MIC (Trichophyton rubrum, Trichophyton raubitschekii, read-out: Geometric Mean MIC) was 0.25 µg/mL (≈ 0.357 µM). The MIC (Trichophyton rubrum, Trichophyton raubitschekii, read-out: MIC[90]) was 0.25 µg/mL (≈ 0.357 µM), the MIC (Trichophyton rubrum, read-out: Geometric Mean MIC) was 0.047 µg/mL (≈ 0.0671 µM) and the MIC (Trichophyton rubrum, read-out: MIC[90]) was 0.25 µg/mL (≈ 0.357 µM). For the same compound, the MIC (Trichophyton soudanense, read-out: Geometric Mean MIC) was 0.5 µg/mL (≈ 0.713 µM), the MIC (Trichophyton soudanense, read-out: MIC[90]) was 0.5 µg/mL (≈ 0.713 µM) and the MIC (Trichophyton spp, read-out: Geometric Mean MIC) was 0.036 µg/mL (≈ 0.0514 µM). It also gave an MIC (Trichophyton spp, read-out: MIC[90]) of 0.064 µg/mL (≈ 0.0913 µM), an MIC (Trichophyton tonsurans, read-out: Geometric Mean MIC) of 0.029 µg/mL (≈ 0.0414 µM) and an MIC (Trichophyton tonsurans, read-out: MIC[90]) of 0.125 µg/mL (≈ 0.178 µM). It also gave an MIC (Trichosporon spp, read-out: Geometric Mean MIC) of 0.63 µg/mL (≈ 0.899 µM), an MIC (Trichosporon spp, read-out: MIC[90]) of 0.5 to 1 µg/mL (≈ 0.713 to 1.43 µM) and an MIC (Yarrowia lipolytica, read-out: Geometric Mean MIC) of 0.144 µg/mL (≈ 0.205 µM). For the same compound, the MIC (Yarrowia lipolytica, read-out: MIC[90]) was 0.016 to 1 µg/mL (≈ 0.0228 to 1.43 µM).
